pIC50: −log10 of the molar value. Blank lines part the entries; values can stand above or below the molecule they belong to.
Experiments:
TXA2 receptor = target: T1, TXA2 receptor (Homo sapiens, UniProt P21731); assay: In vivo phosphorylation of TXA2 receptors in 32P-labeled HEL cells; assay type: cell-based
T1 construct: HEL cells, which contain high densities of the platelet TXA2 receptor; endogenous in cells; host or cells: HEL cells
T1 sequence (P21731 1-343): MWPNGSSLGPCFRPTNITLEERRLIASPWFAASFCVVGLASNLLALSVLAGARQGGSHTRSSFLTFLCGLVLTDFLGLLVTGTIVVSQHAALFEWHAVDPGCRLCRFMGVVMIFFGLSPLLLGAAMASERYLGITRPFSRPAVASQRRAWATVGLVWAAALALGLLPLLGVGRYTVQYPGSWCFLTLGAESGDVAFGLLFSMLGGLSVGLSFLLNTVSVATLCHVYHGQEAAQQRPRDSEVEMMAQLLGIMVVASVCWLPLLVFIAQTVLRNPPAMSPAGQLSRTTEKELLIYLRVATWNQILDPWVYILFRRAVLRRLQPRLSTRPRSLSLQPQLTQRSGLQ
Experimental: To examine whether cGMP can lead to phosphorylation of TXA2 receptors in vivo, studies were performed using HEL cells, which contain high densities of the platelet TXA2 receptor (Allan, C. J. et al., 1996, J. Pharmacol. Exp. Ther. 277:1132-1139; Mayeux, P. R. et al., 1989, J. Pharmacol. Exp. Ther. 250:923-927).
HEL cells were labeled with ^32P (Mendelsohn, M. E. et al., 1991, supra) and then exposed to buffer alone (10 minutes), U46619 (5 μM, 10 minutes), or 8-Br-cGMP (10 mM, 15 minutes). Reactions were terminated by addition of ice-cold TEB buffer: 20 mM Tris-Cl, pH 7.4, 5 mM EGTA, 0.128 mg/ml phenylmethylsulfonyl fluoride, 0.15 mg/ml benzamidine Cl, followed by preparation of solubilized TXA2 receptor fractions in CHAPS buffer: 20 mM Tris-Cl, pH 7.4, 5 mM EGTA, 25% glycerol, 0.128 mg/ml phenylmethylsulfonyl fluoride, 0.15 mg/ml benzamidine Cl, 10 mM CHAPS (Schror, K. et al., 1995, Biochem. Pharmacol. 49: 921-927). TXA2 receptor fractions were then purified on and eluted from TXA2 antibody affinity beads, resolved by SDS-PAGE, and transferred to nitrocellulose. Receptor was quantified by immunoblotting and phosphorylation was quantitated by PhosphorImager analysis (Mendelsohn, M. E. et al., 1991, supra). […]

Gαq/Gα11 = assay: Immunoprecipitation of Gαq/Gα11 from 32P-labeled platelets; assay type: cell-based, human; conditions: 32P-labeled platelets treated with compound
Description: (§1) In separate immunoprecipitation experiments, we also examined whether Gαq/Gα11 or its effector PLCβ, were phosphorylated in response to NO or cGMP. Anti-Gαq/Gα11 antibodies were obtained from D. Manning (University of Pennsylvania; Woolkalis, M. J. et al., 1986, J. Biol. Chem. 261:3408-3413).

[1] = tested on: TXA2-specific GTPase in human platelet membranes; assay: TXA2 receptor-coupled GTPase activity in human platelet membranes; assay type: biochemical
Experimental: Platelets were prepared from plateletpheresis units as described (Benka, M. L. et al., 1995, supra; Zhu, Y. et al., 1994, supra).
TXA2-stimulated GTPase activity was measured in platelet membranes by initiating reactions by the addition of 20-45 μg of platelet membranes to tubes in the absence or presence of 10 μM of the thromboxane analog, U46619, (Benka, M. L. et al., The MBL Physiology Course, Busa, W. B. & Mendelsohn, M. E., 1995, FEBS Lett. 363: 49-52). The final reaction mixture (total volume=100 μl) contained 0.4 μM GTP, including 0.6-0.9 μCi of [γ-^32P]GTP(1.5-2×10^6 dpm), as well as 100 mM NaCl, 0.1 mM EGTA, 2 mM MgCl2, 1 mM dithiothreitol, 0.1 mM ATP, 5 mM phosphocreatine, 100 units/ml creatine phosphokinase, 0.2% bovine serum albumin, 50 mM triethanolamine HCl, pH 7.4, and indicated concentrations of agonist.
[…] GTPase reactions were terminated with 5% activated charcoal/20 mM phosphoric acid, and high affinity GTPase activity was measured and calculated (Shenker, A. et al., 1991, J. Biol. Chem. 268: 26011-26017; Benka et al., supra).

PLCβ = PLCβ phosphorylation in platelets (PLCβ antibodies); assay type: cell-based, human; conditions: monoclonal and polyclonal PLCβ antibodies
Description: as §1

thrombin receptor = assay: Thrombin receptor-mediated vascular smooth muscle cell activation; assay type: cell-based; conditions: FIG. 6A-6C; effect reversed by inhibition of G kinase
Description: The activation of vascular smooth muscle cells by thrombin receptor is inhibited by nitric oxide (FIG. 6A). […] This effect is reversed by inhibition by G kinase.

- pIC50 ([1]; platelet membranes pretreated 10 minutes at room temperature before U46619 stimulation, n=3 experiments in triplicate, read-out: mean IC50, inhibition of U46619-stimulated GTPase activity): 7.12
SMILES: Nc1nc2c(nc(Br)n2[C@@H]2O[C@@H]3COP(=O)(O)O[C@H]3[C@H]2O)c(=O)[nH]1 [8-Br-cGMP, 8-bromo-cyclic GMP]
- TXA2 receptor phosphorylation (TXA2 receptor; 10 mM, 15 minutes): clear and significant increases in TXA2 receptor phosphorylation to a level comparable with agonist-induced phosphorylation
- Gαq/Gα11 G protein phosphorylation (Gαq/Gα11): did not demonstrate any significant G protein phosphorylation
- decrease of basal platelet membrane GTPase activity ([1]; pretreatment with 500 μm 8-Br-cGMP, n=4): 8±9%

SMILES: CC(=O)N[C@@H](CSN=O)C(=O)O [S-nitroso-N-acetylcysteine]
- Gαq/Gα11 G protein phosphorylation (Gαq/Gα11): did not demonstrate any significant G protein phosphorylation

- TXA2 receptor phosphorylation (TXA2 receptor; 5 μM, 10 minutes): phosphorylated
SMILES: CCCCC[C@H](O)/C=C/[C@@H]1[C@@H](C/C=C\CCCC(=O)O)[C@H]2CO[C@@H]1C2 [U46619]
- average increase in GTPase activity (stimulation of TXA2-specific GTPase) ([1]; untreated platelet membranes, 10 μM U46619, n=three experiments in triplicate): 5.5±1.3 pmol of 32P/min/mg platelet pr

SMILES: Nc1nc2c(ncn2[C@@H]2O[C@@H]3COP(=O)(O)O[C@H]3[C@H]2O)c(=O)[nH]1 [cyclic GMP]
- phosphorylation of PLCβ (PLCβ): no increase in phosphorylation of PLCβ
- inhibition of thrombin receptor-mediated vascular smooth muscle cell activation (thrombin receptor): inhibition

SMILES: [N]=O [nitric oxide]
- phosphorylation of PLCβ (PLCβ): no increase in phosphorylation of PLCβ
- inhibition of thrombin receptor-mediated vascular smooth muscle cell activation (thrombin receptor): inhibited

From patent US6352833B1, “Methods for discovery of vasoactive compounds for the nitric oxide-cyclic GMP signal pathway” (priority 1999, dated 2002)
